According to PubChem BioAssay (NCI):
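Assay format: 96-well plates, 48-hour exposure. TGI is the concentration that stops growth completely.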

Key:
Experiment in all cases: NCI anticancer screen, dose series, 48 h
MOLT-4 leukemia = tested on: MOLT-4 leukemia
UACC-62 melanoma = tested on: UACC-62 melanoma
LOX IMVI melanoma = tested on: LOX IMVI melanoma
HS 578T breast = tested on: HS 578T breast
U251 CNS = tested on: U251 CNS
HCC-2998 colon = tested on: HCC-2998 colon
CAKI-1 renal = tested on: CAKI-1 renal
SF-268 CNS = tested on: SF-268 CNS
SF-539 CNS = tested on: SF-539 CNS
OVCAR-3 ovarian = tested on: OVCAR-3 ovarian
MCF7 breast = tested on: MCF7 breast

SMILES	TGI (MOLT-4 leukemia) [µM]	TGI (UACC-62 melanoma) [µM]	TGI (LOX IMVI melanoma) [µM]	TGI (HS 578T breast) [µM]	TGI (U251 CNS) [µM]	TGI (HCC-2998 colon) [µM]	TGI (CAKI-1 renal) [µM]	TGI (SF-268 CNS) [µM]	TGI (SF-539 CNS) [µM]	TGI (OVCAR-3 ovarian) [µM]	TGI (MCF7 breast) [µM]
CC(=O)N(CN1C(=O)CCC1C(=O)O)c1ccccc1Cl (stereo not given)	> 100	> 100	> 100	> 100	> 100	> 100	> 100	> 100	> 100	> 100	> 100
O=C1c2cc([N+](=O)[O-])sc2C(=O)c2ccsc21	0.456	0.433	0.225	1.85	0.373	1.7	2.55	1.06	0.938	0.209	0.69
Cc1sc2nc3n(c(=O)c2c1C)N=C(c1ccc([N+](=O)[O-])cc1)CS3	> 100	> 100	> 100	> 100	> 100	> 100	> 100	> 100	> 100	> 100	> 100
COCCNC1CCC2(SCCS2)c2[nH]c3ccccc3c21 (stereo not given)	> 100	–	36	> 100	> 100	> 100	> 100	> 100	50.7	82.1	39.3
O=C(O)CC(O)(C(=O)O)C(O)C(=O)O (stereo not given)	> 1000	> 1000	> 1000	867	> 1000	> 1000	> 1000	> 1000	> 1000	> 1000	> 1000
CC(=O)OCC1OC(N2C(S)=C(C#N)C(c3ccco3)C(C(C)=O)=C2c2ccccc2)C(OC(C)=O)C(OC(C)=O)C1OC(C)=O (stereo not given)	> 100	> 100	> 100	48.4	> 100	> 100	> 100	> 100	> 100	> 100	> 100
CC1CC[C@@]2(OC1)OC1C[C@H]3[C@@H]4CCC5CC(O)CC[C@]5(C)[C@H]4C/C(=N\N(C)C)[C@]3(C)C1[C@@H]2C (stereo not given in full)	> 100	> 100	> 100	97.7	> 100	45.6	–	99.4	60.9	38.6	> 100
Cc1cccc(NC2=NCCO2)c1Cl	> 100	> 100	–	> 100	> 100	> 100	–	> 100	> 100	–	> 100
C#CCCCC(=O)N(C(=O)CS(=O)CC)c1ccccc1 (stereo not given)	> 100	> 100	> 100	> 100	> 100	> 100	> 100	> 100	> 100	> 100	> 100
O=C(Oc1cccc(Cl)c1)c1cc2cc(CCl)ccc2oc1=O	> 100	28.2	> 100	> 100	–	34.4	> 100	> 100	> 100	> 100	99.6
Brc1cccc[n+]1-c1ccc2cc(-[n+]3ccccc3Br)ccc2c1	–	> 100	34.7	> 100	29.8	> 100	> 100	90.4	40.1	46.4	> 100
C=CCC(CNC(=O)OCc1ccccc1)OC(=O)OCc1ccccc1 (stereo not given)	> 100	> 100	> 100	> 100	> 100	> 100	> 100	> 100	> 100	> 100	> 100
CC1CN=C(c2ccc(COc3ccc(C4=NCC(C)N4)cc3)cc2)N1 (stereo not given)	> 100	> 100	> 100	> 100	> 100	> 100	> 100	> 100	> 100	> 100	> 100
COc1ccc(C[C@@H]2OC3(C=CC(=O)C=C3)O[C@H]2Cc2ccc(OC)cc2)cc1	2.01	3.7	0.377	23.3	2.75	2.95	1.38	3.07	2.63	2.31	5.68
COc1ccc(N2C(=O)C3CC4=CC(=O)C[C@H]4[C@H]32)cc1 (stereo not given in full)	> 100	> 100	> 100	> 100	> 100	> 100	87.6	> 100	–	> 100	> 100
CC1(C)CC2C(C1=O)C1(C)CCCC2(C)C1=O (stereo not given)	> 100	> 100	> 100	> 100	> 100	> 100	> 100	> 100	> 100	> 100	> 100
CCCCCCCCCCCCCCCCP(=O)([O-])OCC[N+](C)(C)C	33.4	29.3	29	33.4	31.2	22	25.4	34.1	39.8	31.6	35.3
CC(=O)O[C@H]1CC[C@H]2[C@@H]3CCC(C(C)=O)[C@H](C(=O)O)[C@H]3CC[C@]12C (stereo not given in full)	> 100	> 100	–	> 100	> 100	> 100	> 100	> 100	> 100	> 100	> 100
CSC1=C(C(=O)Nc2ccccc2)C(N)=NC1=O	> 100	> 100	> 100	> 100	> 100	> 100	> 100	> 100	> 100	–	> 100
OCC(O)C(O)C(O)C(O)/C=N/Nc1nc(O)c(/C=C2\C=Nc3ccccc32)[nH]1 (stereo not given)	> 100	> 100	> 100	> 100	> 100	> 100	> 100	> 100	> 100	> 100	> 100
